Experimental data published in patent publication US20130065868A1, “ANXIOYTIC MARCGRAVIACEAE COMPOSITIONS CONTAINING BETULINIC ACID, BETULINIC ACID DERIVATIVES, AND METHODS” (UNIVERSITY OF OTTAWA, priority 2002, published 2013).

Tests used:
COX-1 = COX-1 (Homo sapiens, UniProt P23219); assay: MDS Panlabs screen: cyclooxygenase COX-1; type: biochemical
Description: (§1) Tests were conducted by MDS Panlabs to determine whether any of the classical neurotransmitter systems or the peptidergic systems thought to play a role in anxiety are affected by betulinic acid.

COMT = COMT (Homo sapiens, UniProt P21964); assay: MDS Panlabs screen: COMT; type: biochemical; details: Catecholamines
COMT, sequence (P21964 whole entry, species assumed): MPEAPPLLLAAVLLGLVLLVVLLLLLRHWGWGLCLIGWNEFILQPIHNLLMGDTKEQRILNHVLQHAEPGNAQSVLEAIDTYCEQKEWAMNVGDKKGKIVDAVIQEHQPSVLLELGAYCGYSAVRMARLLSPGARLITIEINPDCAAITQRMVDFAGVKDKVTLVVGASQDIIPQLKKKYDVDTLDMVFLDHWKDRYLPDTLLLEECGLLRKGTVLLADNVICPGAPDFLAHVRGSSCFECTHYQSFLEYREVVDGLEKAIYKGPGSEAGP
Description: as §1

GABAA, BZP = assay: MDS Panlabs screen: GABAA, BZP; type: binding; details: Gabaergic
Description: as §1

[1] = general description of the substance; cited from earlier work
VIP1 = VIP1 (Homo sapiens, UniProt P32241); assay: MDS Panlabs screen: VIP1; type: binding; details: Peptides
Description: as §1

cannabinoid CB2 = cannabinoid CB2 (Homo sapiens, UniProt P34972); assay: MDS Panlabs screen: cannabinoid CB2; type: binding; details: Peptides
Description: as §1

tachykinin NK3 = tachykinin NK3 (Homo sapiens, UniProt P29371); assay: MDS Panlabs screen: tachykinin NK3; type: binding; details: Peptides
Description: as §1

GABAB = GABAB (Homo sapiens, UniProt Q9UBS5); assay: MDS Panlabs screen: GABAB; type: binding; details: Gabaergic
GABAB, sequence (Q9UBS5 15-961 limits assumed): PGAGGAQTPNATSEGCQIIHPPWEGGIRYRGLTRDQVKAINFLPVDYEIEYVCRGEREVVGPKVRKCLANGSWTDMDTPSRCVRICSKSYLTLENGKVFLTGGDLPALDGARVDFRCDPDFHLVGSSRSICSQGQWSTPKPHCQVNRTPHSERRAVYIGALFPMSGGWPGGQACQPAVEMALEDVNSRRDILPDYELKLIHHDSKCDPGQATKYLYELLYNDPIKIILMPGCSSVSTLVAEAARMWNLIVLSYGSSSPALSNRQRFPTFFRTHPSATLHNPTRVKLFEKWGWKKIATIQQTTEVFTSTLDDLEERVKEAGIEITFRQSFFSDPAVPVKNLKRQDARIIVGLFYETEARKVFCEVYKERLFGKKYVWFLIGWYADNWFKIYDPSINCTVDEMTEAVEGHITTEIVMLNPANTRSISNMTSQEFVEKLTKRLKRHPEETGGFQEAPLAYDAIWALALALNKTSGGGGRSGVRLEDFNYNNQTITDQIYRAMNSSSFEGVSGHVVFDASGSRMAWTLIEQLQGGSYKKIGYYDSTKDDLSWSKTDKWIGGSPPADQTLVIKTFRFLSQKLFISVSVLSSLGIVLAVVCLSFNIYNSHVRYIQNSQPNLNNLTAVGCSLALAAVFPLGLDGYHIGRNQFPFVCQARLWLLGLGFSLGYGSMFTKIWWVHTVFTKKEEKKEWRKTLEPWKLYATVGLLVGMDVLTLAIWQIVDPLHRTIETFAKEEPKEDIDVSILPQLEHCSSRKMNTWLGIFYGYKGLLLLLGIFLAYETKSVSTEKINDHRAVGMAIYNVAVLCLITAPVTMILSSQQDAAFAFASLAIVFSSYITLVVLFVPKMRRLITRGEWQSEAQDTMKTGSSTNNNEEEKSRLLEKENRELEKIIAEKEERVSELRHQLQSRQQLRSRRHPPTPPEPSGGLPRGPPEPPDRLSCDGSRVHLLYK
GABAB, sequence (O75899 42-941 partner): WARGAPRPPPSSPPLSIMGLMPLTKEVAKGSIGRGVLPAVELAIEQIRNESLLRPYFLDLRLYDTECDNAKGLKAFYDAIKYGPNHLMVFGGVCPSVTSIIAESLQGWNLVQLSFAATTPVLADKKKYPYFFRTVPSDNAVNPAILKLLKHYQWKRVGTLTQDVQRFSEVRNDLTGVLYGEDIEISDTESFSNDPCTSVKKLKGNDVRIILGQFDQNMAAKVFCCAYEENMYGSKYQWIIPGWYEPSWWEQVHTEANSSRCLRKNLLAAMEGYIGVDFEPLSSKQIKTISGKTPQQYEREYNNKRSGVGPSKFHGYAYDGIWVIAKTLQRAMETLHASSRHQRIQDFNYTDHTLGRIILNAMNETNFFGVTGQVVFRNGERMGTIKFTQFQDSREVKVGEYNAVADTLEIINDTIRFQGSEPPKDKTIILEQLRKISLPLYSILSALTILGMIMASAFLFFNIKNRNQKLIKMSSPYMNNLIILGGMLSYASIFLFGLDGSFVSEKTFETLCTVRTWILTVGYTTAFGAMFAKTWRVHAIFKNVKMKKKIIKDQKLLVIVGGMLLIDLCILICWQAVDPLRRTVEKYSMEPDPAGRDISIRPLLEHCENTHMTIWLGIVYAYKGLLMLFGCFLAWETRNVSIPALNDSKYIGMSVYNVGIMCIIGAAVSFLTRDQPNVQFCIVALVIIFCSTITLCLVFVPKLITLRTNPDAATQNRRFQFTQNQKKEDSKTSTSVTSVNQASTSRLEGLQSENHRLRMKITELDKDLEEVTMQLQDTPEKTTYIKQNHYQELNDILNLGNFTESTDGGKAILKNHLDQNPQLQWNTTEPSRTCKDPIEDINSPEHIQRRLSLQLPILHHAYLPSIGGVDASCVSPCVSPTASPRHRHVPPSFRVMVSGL
Description: as §1

CCKA = CCKA (Homo sapiens, UniProt P32238); assay: MDS Panlabs screen: cholecystokinin (CCK) CCKA; type: binding; details: Peptides
CCKA, sequence (P32238 whole entry): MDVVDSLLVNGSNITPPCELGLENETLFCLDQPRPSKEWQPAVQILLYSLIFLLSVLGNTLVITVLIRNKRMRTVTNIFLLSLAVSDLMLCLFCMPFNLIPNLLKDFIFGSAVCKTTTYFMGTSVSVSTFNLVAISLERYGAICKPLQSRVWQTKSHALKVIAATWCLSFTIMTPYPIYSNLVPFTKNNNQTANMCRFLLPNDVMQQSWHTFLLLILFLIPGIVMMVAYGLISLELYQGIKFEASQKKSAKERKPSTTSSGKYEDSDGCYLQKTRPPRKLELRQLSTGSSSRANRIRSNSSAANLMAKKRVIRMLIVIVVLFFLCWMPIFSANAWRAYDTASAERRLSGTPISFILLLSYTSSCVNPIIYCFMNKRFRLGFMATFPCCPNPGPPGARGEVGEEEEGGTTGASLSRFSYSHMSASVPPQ
Description: as §1

5-HT1A = 5-HT1A (Homo sapiens, UniProt P08908); assay: MDS Panlabs screen: 5-HT1A; type: binding; details: Serotonin (5-HT)
5-HT1A, sequence (P08908 whole entry, species assumed): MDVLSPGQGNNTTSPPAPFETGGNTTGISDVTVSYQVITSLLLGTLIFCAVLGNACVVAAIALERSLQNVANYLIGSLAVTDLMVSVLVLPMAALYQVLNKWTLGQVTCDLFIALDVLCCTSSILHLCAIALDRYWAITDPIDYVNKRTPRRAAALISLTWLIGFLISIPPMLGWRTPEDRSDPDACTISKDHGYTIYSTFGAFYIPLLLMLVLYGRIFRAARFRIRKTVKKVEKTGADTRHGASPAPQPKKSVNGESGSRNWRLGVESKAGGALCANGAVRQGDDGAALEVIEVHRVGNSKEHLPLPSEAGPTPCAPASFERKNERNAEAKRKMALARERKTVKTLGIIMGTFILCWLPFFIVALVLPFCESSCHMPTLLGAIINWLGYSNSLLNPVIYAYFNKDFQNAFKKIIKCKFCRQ
Description: as §1

Sprague-Dawley rats = assay: Rat social interaction paradigm; type: in vivo; details: 0.5 mg/kg i.p.
Text: The rat social interaction paradigm takes advantage of rats' natural behaviour in novel situations. The more ‘anxious’ the animals are, the less likely they are engage in social interaction with the cohort. Anxiolytic drugs typically increase the amount of time rodents spend socially interacting with one another. (Pile, S. E., (1980). The use of social interaction as a method for detecting anxiolytic activity of chlor-diazepoxide-like drugs. In Current Protocols in Neuroscience (pp. 8.3.3-8.3.4), John-Wiley & Sons).
The social-interaction (SI) test arena constituted of a 60×60 cm white Plexiglas floor, enclosed by 35-cm high walls of the same material. The arena was surrounded by black curtain, and a closed circuit camera was positioned above the setup, to feed live video signals to the experimenter seated in a separate room, for behavioral assessment and recording.
Each rat was placed alone in the SI box for 7.5 min daily for 2 days, in order to familiarize the animals with the test environment. Animals were paired according to their body weights (less than 10 g difference) and each pair was randomly assigned to one of the treatment groups. Rats received either betulinic acid 0.5 mg/kg i.p., betulinic acid methyl ester (methyl betulinate) 0.5 mg/kg i.p., or peanut oil only (control). Drugs were injected (i.p.) 60 min prior to testing. Tests were carried out at three intervals, 1 h, 2.5 h and 4 h after injection. Each pair was tested at the 1-h interval, then new pairs from within the same drug group were formed for the 2.5-h interval and then again at the 4-h interval (new pairs were formed for each test interval, to control for the potential confounding effect partner familiarity). […] The behaviors scored included the amount of time the pairs spent interacting together (sniffing, grooming and chasing) as well as the number of times the animals initiated contact.

adrenergic α2 = assay: MDS Panlabs screen: adrenergic α2; type: binding; details: Catecholamines
Description: as §1

[2] = Weight gain over chronic treatment; type: in vivo, rat; details: rats, chronic 0.5 mg/kg daily orally (FIG. 12)
5-HT3 = 5-HT3 (Homo sapiens, UniProt P46098); assay: MDS Panlabs screen: 5-HT3; type: binding; details: Serotonin (5-HT)
5-HT3, sequence (P46098 24-478, species assumed): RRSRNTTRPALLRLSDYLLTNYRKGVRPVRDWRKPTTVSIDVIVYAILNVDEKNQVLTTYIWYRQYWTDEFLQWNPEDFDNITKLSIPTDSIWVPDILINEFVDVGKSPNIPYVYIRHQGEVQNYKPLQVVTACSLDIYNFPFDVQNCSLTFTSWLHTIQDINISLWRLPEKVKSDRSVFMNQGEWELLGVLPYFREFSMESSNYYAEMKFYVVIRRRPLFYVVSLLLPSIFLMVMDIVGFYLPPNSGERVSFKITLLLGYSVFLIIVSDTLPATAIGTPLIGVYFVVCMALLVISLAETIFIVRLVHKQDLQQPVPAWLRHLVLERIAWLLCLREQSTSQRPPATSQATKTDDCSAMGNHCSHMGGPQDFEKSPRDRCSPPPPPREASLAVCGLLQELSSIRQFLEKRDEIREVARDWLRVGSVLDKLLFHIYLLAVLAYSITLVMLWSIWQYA
Description: as §1

BALB/c mice = assay: Elevated plus maze test in BALB/c mice; type: in vivo, mouse; details: vs peanut oil only control
Text: BALB/c mice represent a strain of mice that is very stress-reactive.
Mice received dosages of betulinic acid in accordance with the previous example.

COX-2 = COX-2 (Homo sapiens, UniProt P35354); assay: MDS Panlabs screen: cyclooxygenase COX-2; type: biochemical
Description: as §1

Histamine H1 = Histamine H1 (Homo sapiens, UniProt P35367); assay: MDS Panlabs screen: Histamine H1; type: binding
Histamine H1, sequence (P35367 whole entry): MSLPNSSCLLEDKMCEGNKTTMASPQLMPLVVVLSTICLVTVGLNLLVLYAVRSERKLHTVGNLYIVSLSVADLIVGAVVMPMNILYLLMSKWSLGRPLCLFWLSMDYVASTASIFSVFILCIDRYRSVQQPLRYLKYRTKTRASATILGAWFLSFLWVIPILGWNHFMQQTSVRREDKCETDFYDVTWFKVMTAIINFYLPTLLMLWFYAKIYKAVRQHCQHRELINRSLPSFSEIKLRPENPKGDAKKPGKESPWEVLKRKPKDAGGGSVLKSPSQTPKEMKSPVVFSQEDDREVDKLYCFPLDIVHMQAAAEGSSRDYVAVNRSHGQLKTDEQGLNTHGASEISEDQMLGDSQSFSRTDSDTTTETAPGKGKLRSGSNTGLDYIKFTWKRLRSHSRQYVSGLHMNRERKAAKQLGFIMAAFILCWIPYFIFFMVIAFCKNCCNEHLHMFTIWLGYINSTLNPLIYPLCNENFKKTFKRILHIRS
Description: as §1

muscarinic non-selective = assay: MDS Panlabs screen: muscarinic non-selective; type: binding; details: Acetylcholine
Description: as §1

[3] = Acute or chronic toxicity at repeated doses; type: in vivo; details: 500 mg/kg vs anxiolytic dose
Text: This is a dose 1000 times higher than that needed to reduce anxiety.

galanin GalR1 = galanin GalR1 (Homo sapiens, UniProt P47211); assay: MDS Panlabs screen: galanin GalR1; type: binding; details: Peptides
galanin GalR1, sequence (P47211 whole entry): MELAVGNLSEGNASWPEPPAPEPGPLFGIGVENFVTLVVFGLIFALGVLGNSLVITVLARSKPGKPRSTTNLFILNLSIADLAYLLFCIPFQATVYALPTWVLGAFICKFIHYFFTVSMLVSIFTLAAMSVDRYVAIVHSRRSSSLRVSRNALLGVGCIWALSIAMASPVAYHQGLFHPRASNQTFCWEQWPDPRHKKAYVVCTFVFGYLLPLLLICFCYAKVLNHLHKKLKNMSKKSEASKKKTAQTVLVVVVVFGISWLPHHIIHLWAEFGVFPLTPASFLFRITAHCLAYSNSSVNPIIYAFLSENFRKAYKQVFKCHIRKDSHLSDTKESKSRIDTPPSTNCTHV
Description: as §1

Histamine H3 = Histamine H3 (Homo sapiens, UniProt Q9Y5N1); assay: MDS Panlabs screen: Histamine H3; type: binding
Description: as §1

serotonin transporter = serotonin transporter (Homo sapiens, UniProt P31645); assay: MDS Panlabs screen: serotonin transporter; type: binding; details: Serotonin (5-HT)
Description: as §1

somatostatin = assay: MDS Panlabs screen: somatostatin; type: binding; details: Peptides
Description: as §1

nicototinic = assay: MDS Panlabs screen: nicotinic; type: binding; details: Acetylcholine
Description: as §1

COX-1, sequence (P23219 24-599): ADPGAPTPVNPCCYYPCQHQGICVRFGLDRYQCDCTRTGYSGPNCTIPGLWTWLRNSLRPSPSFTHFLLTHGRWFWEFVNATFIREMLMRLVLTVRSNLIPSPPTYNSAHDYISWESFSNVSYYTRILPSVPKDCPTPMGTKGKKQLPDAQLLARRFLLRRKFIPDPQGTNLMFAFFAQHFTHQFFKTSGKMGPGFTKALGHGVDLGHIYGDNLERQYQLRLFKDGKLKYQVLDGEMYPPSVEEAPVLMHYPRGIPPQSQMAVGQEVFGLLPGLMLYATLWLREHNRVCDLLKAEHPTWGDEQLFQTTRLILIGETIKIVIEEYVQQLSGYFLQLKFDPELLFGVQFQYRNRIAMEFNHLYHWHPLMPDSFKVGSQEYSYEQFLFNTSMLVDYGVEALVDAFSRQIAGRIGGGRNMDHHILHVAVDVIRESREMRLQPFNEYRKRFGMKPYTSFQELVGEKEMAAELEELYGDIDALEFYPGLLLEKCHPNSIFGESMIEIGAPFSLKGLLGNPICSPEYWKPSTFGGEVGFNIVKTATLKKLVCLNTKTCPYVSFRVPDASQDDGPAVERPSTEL

In the case of `C=C(C)[C@@H]1CC[C@]2(C(=O)O)CC[C@]3(C)C(CC[C@@H]4[C@@]5(C)CC[C@H](O)C(C)(C)[C@@H]5CC[C@]43C)[C@@H]12` (stereo partly shown) [betulinic acid, Betulinic acid], the “affected by betulinic acid” value (COX-1) is reported as “none of the following neurotransmitters or proteins were affected”, the “affected by betulinic acid” value (COMT) is reported as “none of the following neurotransmitters or proteins were affected” and the “affected by betulinic acid” value (GABAA, BZP) is reported as “none of the following neurotransmitters or proteins were affected”. The “solubility (solvents)” value [1] was “soluble in water, ethanol, ether, acetone, benzene, and chloroform”, the “affected by betulinic acid” value (VIP1) was “none of the following neurotransmitters or proteins were affected” and the “affected by betulinic acid” value (cannabinoid CB2) was “none of the following neurotransmitters or proteins were affected”. The “affected by betulinic acid” value (tachykinin NK3) was “none of the following neurotransmitters or proteins were affected”, the “affected by betulinic acid” value (GABAB) was “none of the following neurotransmitters or proteins were affected” and the “affected by betulinic acid” value (CCKA) was “none of the following neurotransmitters or proteins were affected”. For the same compound, the “affected by betulinic acid” value (5-HT1A) was “none of the following neurotransmitters or proteins were affected”, the “frequency of initiated contact” value (Sprague-Dawley rats) was “not significant” and the “amount of social interaction (interaction time) compared to the control group” value (Sprague-Dawley rats; data collapsed across 1 h, 2.5 h and 4 h (FIG. 8)) was “significantly increased the amount of social interaction”. For the same compound, the “affected by betulinic acid” value (adrenergic α2) was “none of the following neurotransmitters or proteins were affected”, the “effect of chronic drug treatment on weight gain” value [2] was “did not seem to affect weight gain in a significant manner” and the “affected by betulinic acid” value (5-HT3) was “none of the following neurotransmitters or proteins were affected”. The “number of entries on the open arm of the elevated plus maze” value (BALB/c mice; 0.25 mg/kg i.p.) was “significantly increased”, the “proportion of time spent on the open arm of the elevated plus maze” value (BALB/c mice; 0.25 mg/kg i.p.) was “significantly increased” and the “number of entries on the open arm of the elevated plus maze” value (BALB/c mice; 2.5 mg/kg i.p.) was “significantly increased”. The “proportion of time spent on the open arm of the elevated plus maze” value (BALB/c mice; 2.5 mg/kg i.p.) was “significantly increased”, the “affected by betulinic acid” value (COX-2) was “none of the following neurotransmitters or proteins were affected” and the “affected by betulinic acid” value (Histamine H1) was “none of the following neurotransmitters or proteins were affected”. For the same compound, the “affected by betulinic acid” value (muscarinic non-selective) was “none of the following neurotransmitters or proteins were affected”, the “non-toxic dose relative to the dose needed to reduce anxiety” value [3] was 1000 times and the “affected by betulinic acid” value (galanin GalR1) was “none of the following neurotransmitters or proteins were affected”. The “affected by betulinic acid” value (Histamine H3) was “none of the following neurotransmitters or proteins were affected”, the “affected by betulinic acid” value (serotonin transporter) was “none of the following neurotransmitters or proteins were affected” and the “affected by betulinic acid” value (somatostatin) was “none of the following neurotransmitters or proteins were affected”. For the same compound, the “affected by betulinic acid” value (nicototinic) was “none of the following neurotransmitters or proteins were affected”.
